Laboratory results published in patent EP1120414A1, “DISUBSTITUTED MALEIMIDE COMPOUNDS AND MEDICINAL UTILIZATION THEREOF” (Japan Tobacco Inc., priority 1998, dated 2000).
Where two headings read alike, the source gives them in different places.

What was measured:
PKC α = target: T1, PKC α (Homo sapiens, UniProt P17252); experiment: PKC enzyme assay (BIOTRAK Protein kinase C enzyme assay system, 32P-ATP phosphorylation of peptide […]); format: biochemical
T1 construct: purchased CALBIOCHEM
Procedure, shortened: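 Recombinant human PKC (400 ng/ml solution) phosphorylated the supplied peptide with [γ-32P]ATP in calcium, phosphatidylserine/PMA, DTT and Mg-ATP buffer, 15 min at 37°C. Compounds were tested at 1 nM-10 µM final. Phosphocellulose-bound radioactivity relative to DMSO gave inhibition, from which IC50 was calculated.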

PKC β II = target: T2, PKC β II (Homo sapiens, UniProt P05771); experiment: as above; format: biochemical; conditions: for Ratio α/β: IC50 PKC α / IC50 PKC β II
T2 construct: purchased CALBIOCHEM

[1] = Protein Kinase C, Human Recombinant, test substance 1 nM-10 µM, 37°C, 15 minutes, read-out: Inhibition of PKC activity IC50 PKC α
[2] = Protein Kinase C, Human Recombinant, test substance 1 nM-10 µM, 37°C, 15 minutes, read-out: Inhibition of PKC activity IC50 PKC β II
[3] = read-out: Inhibition of PKC activity IC50 PKC α, Protein Kinase C, Human Recombinant, test substance 1 nM-10 µM, 37°C, 15 minutes
[4] = read-out: Inhibition of PKC activity IC50 PKC β II, Protein Kinase C, Human Recombinant, test substance 1 nM-10 µM, 37°C, 15 minutes

T2 sequence (P05771 other isoform, or with tags, fused parts or gaps): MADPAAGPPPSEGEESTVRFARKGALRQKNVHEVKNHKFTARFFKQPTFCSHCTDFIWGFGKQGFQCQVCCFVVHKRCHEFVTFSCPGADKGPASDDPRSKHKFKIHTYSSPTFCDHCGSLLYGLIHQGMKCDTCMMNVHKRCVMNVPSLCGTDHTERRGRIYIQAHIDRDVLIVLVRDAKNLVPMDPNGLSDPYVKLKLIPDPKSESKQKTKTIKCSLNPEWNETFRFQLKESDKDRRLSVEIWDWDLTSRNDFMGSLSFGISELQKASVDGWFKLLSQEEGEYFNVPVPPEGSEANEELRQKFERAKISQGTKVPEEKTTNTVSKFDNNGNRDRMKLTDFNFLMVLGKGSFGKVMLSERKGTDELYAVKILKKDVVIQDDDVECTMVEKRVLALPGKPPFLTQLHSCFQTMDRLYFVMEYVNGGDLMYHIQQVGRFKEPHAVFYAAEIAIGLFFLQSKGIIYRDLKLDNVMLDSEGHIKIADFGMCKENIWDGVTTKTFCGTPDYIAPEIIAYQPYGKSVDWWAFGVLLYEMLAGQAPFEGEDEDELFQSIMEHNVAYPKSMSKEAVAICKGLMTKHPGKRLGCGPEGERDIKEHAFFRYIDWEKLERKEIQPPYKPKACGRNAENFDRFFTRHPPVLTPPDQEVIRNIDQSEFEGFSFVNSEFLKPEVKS

Row | Compound | IC50 (PKC α; [1]) | Ratio α/β (PKC β II) | IC50 (PKC β II; [2]) | IC50 (PKC α; [3]) | IC50 (PKC β II; [4]) | IC50 (PKC α) | IC50 (PKC β II)
1 | CN(C)CCCn1cc(C2=C(Nc3ccccc3)C(=O)NC2=O)c2ccccc21 [Example 2-8, 3-[1-(3-dimethylaminopropyl)-1H-indol-3-yl]-4-(phenylamino)-1H-pyrrole-2,5-dione] | 460 nM | 38 | 12 nM | – | – | – | –
2 | O=C1NC(=O)C(c2c3n(c4ccccc24)C[C@@H](CO)C=C3)=C1Nc1ccccc1 [Example 4-53] | – | 106 | – | 1480 nM | 14 nM | – | –
3 | O=C1NC(=O)C(c2c3n(c4ccccc24)C[C@@H](CO)C3)=C1Nc1ccc(F)cc1 [Example 4-68] | – | 85 | – | 341 nM | 4 nM | – | –
4 | O=C1NC(=O)C(c2c3n(c4ccccc24)CCC(Cn2ccnc2)C3)=C1Nc1ccccc1 (stereo not shown) [Example 4-3, 3-[8-(1-imidazolylmethyl)-6,7,8,9-tetrahydropyrido[1,2-a]indol-10-yl]-4-(phenylamino)-1H-pyrrole-2,5-dione] | – | – | – | – | – | 1630 nM | 16 nM
5 | CCN(C)C[C@H]1Cc2c(C3=C(Nc4ccccc4)C(=O)NC3=O)c3ccccc3n2C1 [Example 4-61] | – | 96 | 5 nM | 481 nM | – | – | –
6 | Cc1nccn1CCCn1cc(C2=C(Nc3cccc(Cl)c3)C(=O)NC2=O)c2ccccc21 [Example 2-42, 3-[(3-chlorophenyl)amino]-4-[1-{3-(2-methylimidazol-1-yl)propyl}-1H-indol-3-yl]-1H-pyrrole-2,5-dione] | 452 nM | 45 | 10 nM | – | – | – | –
7 | O=C1NC(=O)C(c2c3n(c4ccccc24)CC[C@H](CN2CCSCC2)C3)=C1Nc1ccccc1 [Example 4-30] | – | 131 | – | 654 nM | 5 nM | – | –
8 | Cc1c(C2=C(Nc3ccccc3)C(=O)NC2=O)c2ccccc2n1CCCn1ccnc1 [Example 2-69, 3-[1-(3-imidazol-1-ylpropyl)-2-methyl-1H-indol-3-yl]-4-(phenylamino)-1H-pyrrole-2,5-dione] | 2350 nM | 117 | 20 nM | – | – | – | –
9 | COC[C@H]1Cc2c(C3=C(Nc4ccccc4)C(=O)NC3=O)c3ccccc3n2C1 [Example 4-56] | – | 131 | – | – | – | 5220 nM | 40 nM
10 | 3-[(3-chlorophenyl)amino]-4-[1-{3-(4-hydroxymethyl-imidazol-1-yl)propyl}-1H-indol-3-yl]-1H-pyrrole-2,5-dione and 3-[(3-chlorophenyl)amino]-4-[1-{3-(5-hydroxymethyl-imidazol-1-yl)propyl}-1H-indol-3-yl]-1H-pyrrole-2,5-dione [Example 2-60] | 762 nM | 48 | 16 nM | – | – | – | –
11 | CN(C)C[C@H]1CCc2c(C3=C(Nc4ccccc4)C(=O)NC3=O)c3ccccc3n2C1 [Example 4-55] | – | 63 | 4 nM | 252 nM | – | – | –
12 | CC(C)(C)OC(=O)C1CCN(CCCn2cc(C3=C(Nc4ccccc4)C(=O)NC3=O)c3ccccc32)CC1 [Example 2-51, 3-[1-{3-[4-(tert-butoxycarbonyl)piperidino]propyl}-1H-indol-3-yl]-4-(phenylamino)-1H-pyrrole-2,5-dione] | 1020 nM | 38 | 27 nM | – | – | – | –
13 | COc1ccc(NC2=C(c3cn(CCCn4ccnc4)c4ccccc34)C(=O)NC2=O)cc1 [Example 2-65, 3-[1-(3-imidazol-1-ylpropyl)-1H-indol-3-yl]-4-[(4-metholyphenyl)amino]-1H-pyrrole-2,5-dione] | 473 nM | 47 | 10 nM | – | – | – | –
14 | COc1ccc(NC2=C(c3c4n(c5ccccc35)C[C@@H](CO)C4)C(=O)NC2=O)cc1 [Example 4-62] | – | 50 | – | 794 nM | 16 nM | – | –
15 | O=C1NC(=O)C(c2cn(CCCn3ccnc3)c3ccccc23)=C1Nc1cccc(Cl)c1 [Example 2-39, 3-[(3-chlorophenyl)amino]-4-[1-(3-imidazol-1-ylpropyl)-1H-indol-3-yl]-1H-pyrrole-2,5-dione] | 354 nM | 17 | 21 nM | – | – | – | –

Next, values leading:

Row | IC50 (PKC α; [1]) | Ratio α/β (PKC β II) | IC50 (PKC β II; [2]) | IC50 (PKC α; [3]) | IC50 (PKC β II; [4]) | IC50 (PKC α) | IC50 (PKC β II) | Compound
16 | 401 nM | 45 | 9 nM | – | – | – | – | Cc1nccn1CCCn1cc(C2=C(Nc3ccccc3)C(=O)NC2=O)c2ccccc21 [Example 2-61, 3-[1-{3-(2-methylimidazol-1-yl)propyl}-1H-indol-3-yl]-4-(phenylamino)-1H-pyrrole-2,5-dione]
17 | 8160 nM | 31 | 261 nM | – | – | – | – | O=C1NC(=O)C(c2cn(CC(O)CO)c3ccccc23)=C1Nc1ccccc1 (stereo not shown) [Example 2-44, 3-[1-(2,3-dihydroxypropyl)-1H-indol-3-yl]-4-(phenylamino)-1H-pyrrole-2,5-dione]
18 | – | 69 | – | 1100 nM | 16 nM | – | – | CCN(C)C[C@H]1Cc2c(C3=C(Nc4ccc(OC)cc4)C(=O)NC3=O)c3ccccc3n2C1 [Example 4-63]
19 | – | 53 | – | 632 nM | 12 nM | – | – | CCN(C)C[C@H]1Cc2c(C3=C(Nc4ccc(F)cc4)C(=O)NC3=O)c3ccccc3n2C1 [Example 4-66]
20 | 2750 nM | 42 | 66 nM | – | – | – | – | NC(=O)C1CCCN1CCCn1cc(C2=C(Nc3ccccc3)C(=O)NC2=O)c2ccccc21 (stereo not shown) [Example 2-24, 3-[1-{3-(2-carbamoylpyrrolidin-1-yl)propyl}-1H-indol-3-yl]-4-(phenylamino)-1H-pyrrole-2,5-dione]
21 | – | 93 | – | – | – | 557 nM | 6 nM | CCN(C)C[C@@H]1CCc2c(C3=C(Nc4ccccc4)C(=O)NC3=O)c3ccccc3n2C1 [Example 4-40]
22 | – | 68 | – | 3880 nM | 57 nM | – | – | O=C1NC(=O)C(c2c3n(c4ccccc24)C[C@@H](CN2CCOCC2)CC3)=C1Nc1ccccc1 [Example 4-52]
23 | 7120 nM | 29 | 247 nM | – | – | – | – | Cc1nccn1CCn1cc(C2=C(Nc3ccccc3)C(=O)NC2=O)c2ccccc21 [Example 2-63, 3-[1-{2-(2-methyl-imidazol-1-yl)ethyl}-1H-indol-3-yl]-4-(phenylamino)-1H-pyrrole-2,5-dione]
24 | 6670 nM | 109 | 61 nM | – | – | – | – | Cc1c(C2=C(Nc3ccccc3)C(=O)NC2=O)c2ccccc2n1CCCN(C)C [Example 2-54, 3-[1-(3-dimethylaminopropyl)-2-methyl-1H-indol-3-yl]-4-(phenylamino)-1H-pyrrole-2,5-dione]
25 | 662 nM | 37 | 18 nM | – | – | – | – | O=C1NC(=O)C(c2cn(CCCN3CCCC3)c3ccccc23)=C1Nc1ccccc1 [Example 2-22, 3-(phenylamino)-4-(1-(3-pyrrolidin-1-ylpropyl)-1H-indol-3-yl]-1H-pyrrole-2,5-dione]
26 | – | 85 | – | 768 nM | 9 nM | – | – | O=C1NC(=O)C(c2c3n(c4ccccc24)CC[C@H](CN2CCOCC2)C3)=C1Nc1ccccc1 [Example 4-26]
27 | 968 nM | – | 23 nM | – | – | – | – | CN1CCN(CCCn2cc(C3=C(Nc4ccccc4)C(=O)NC3=O)c3ccccc32)CC1 [Example 2-26, 3-[1-{3-(4-methylpiperazin-1-yl)propyl}-1H-indol-3-yl]-4-(phenylamino)-1H-pyrrole-2,5-dione]
28 | – | 64 | – | 186 nM | 3 nM | – | – | CCNCC1Cc2c(C3=C(Nc4ccccc4)C(=O)NC3=O)c3ccccc3n2C1 (stereo not shown) [Example 4-31]
29 | – | 75 | – | 321 nM | 4 nM | – | – | CCNCC1Cc2c(C3=C(Nc4ccc(F)cc4)C(=O)NC3=O)c3ccccc3n2C1 (stereo not shown) [Example 4-33]
